# Experimental data reported in patent publication US5385885A, “Inhibition of smooth muscle cell proliferation by antistasin and tick anticoagulant peptide” (priority 1991, dated 1995).
# Entries after “also recorded” stand apart in the source; their conditions may differ.
# Assays:
# [1] = tested on: smooth muscle proliferative responses; details: doses sufficiently high to prevent platelet adherence and release; Harker et al.; cited from earlier work
# [2] = tested on: human venous endothelial cells; experiment: Release of mitogens from endothelial cells stimulated with factor Xa; conditioned media tested for mitogenic activity on 3T3 cells; format: cell-based; details: 1 unit = activity induced by 2 ng/ml PDGF, FXa 1 nM, ATS 5 nM, PDGF 2 ng/ml, 16 h
# Protocol: (§1) Confluent primary cultures or subcultures (passages 1 and 2) of human venous endothelial cells (EC) were cultured in serum-free Dulbecco's Minimal Essential Medium (DMEM)+0.1% bovine serum albumin (BSA) in the presence of human or bovine factor Xa(1 nM) (Sigma Chemical Co., St. Louis, Mo.), antistasin (ATS) (0.5-5.0 nM), or both. Control cultures were untreated or received 2 ng/ml platelet-derived growth factor (PDGF) (Sigma Chemical Co., St. Louis, Mo.). After 16 hours incubation at 37° C., the conditioned media (CM) from the test and control cell cultures were collected and tested for mitogenic activity (MIT) using confluent NIH 3T3 cells (CCL 163, American Type Culture Collection, Rockville, Md.).
# (§2) Primary cultures of EC derived from umbilical cord veins were prepared and grown according to a protocol provided to by Dr. Gwendolyn Stewart (Temple University Thrombosis Center, Phila., Pa.). After washing the lumen of the vein twice with DMEM, EC were dissociated with a solution containing 0.05% trypsin and 0.1% collagenase. Thirty minutes later, the venous content and the perfused DMEM (35 ml) was collected into a fifty ml centrifuge tube containing 3.5 ml of bovine serum and the mixture spun at 900 rpm for 10 minutes. The supernate was discarded and the cell pellet resuspended in 3.0 ml DMEM containing 20% fetal bovine serum (FBS) (heat inactivated at 56° C. for 30 minutes), 90 μg heparin per ml, 5 μg fibronectin per ml, and 60 μg endothelial growth factor per ml (cDMEM), and seeded into 35 mm tissue culture dishes. After 24 hours of incubation at 37 °C, 5% CO2, the culture was washed 3-4 times with DMEM and incubated 2-4 days until the cells were confluent. The monolayers were washed with phosphate buffered saline (PBS) and cultured in DMEM with 0.1% BSA in the presence and absence of 1 nM factor Xa, 5 nM antistasin, or a mixture of both. As positive and negative controls, separated monolayers were incubated with the medium plus 2 ng/ml PDGF or with the medium alone. After 16 hours of incubation at 37° C., conditioned media (CM) were collected, centrifuged at 4000×g for 10 minutes, and the supernate was collected and stored at 4° C. until use. The mitogenic activity of the CM was tested by measuring the incorporation of [^3 H] thymidine into cultures of Balb 3T3 cells. For this purpose, wells were seeded with 2×10^4 3T3 cells suspended in 1 ml DMEM with 10% FBS. Once confluent (5-7 days of culture), CM were added and cells incubated for 18 hours at 37° C. after which cultures were washed with warm DMEM, tritiated thymidine added (1 μCi/ml) and cells incubated for 4 hours at 37° C. […] The lysate was transferred to vials with scintillation fluid and radioactivity monitored in a beta radiation counter. […]
# [3] = tested on: human venous endothelial cells; experiment: Release of mitogens from endothelial cells stimulated with PDGF; conditioned media tested for mitogenic activity on 3T3 cells; format: cell-based; details: PDGF 2 ng/ml, ATS 5 nM, 16 h
# Protocol: as §1, with “cells” for “cells (EC)”, “platelet-derived growth” for “human or bovine”, “(PDGF) (2 ng/ml),” for “Xa(1 nM) (Sigma Chemical Co., St. Louis, Mo.),”, “(5.0-10” for “(0.5-5.0”, “PDGF.” for “platelet-derived growth factor (PDGF) (Sigma Chemical Co., St. Louis, Mo.).”, “C.,” for “C., the”
# as §2, with “2 ng/ml PDGF,” for “1 nM factor Xa,”, “alone.” for “alone. After 16 hours of incubation at 37° C., conditioned media (CM) were collected, centrifuged at 4000×g for 10 minutes, and the supernate was collected and stored at 4° C. until use. The mitogenic activity of the CM was tested by measuring the incorporation of [^3 H] thymidine into cultures of Balb 3T3 cells. For this purpose, wells were seeded with 2×10^4 3T3 cells suspended in 1 ml DMEM with 10% FBS. Once confluent (5-7 days of culture), CM were added and cells incubated for 18 hours at 37° C. after which cultures were washed with warm DMEM, tritiated thymidine added (1 μCi/ml) and cells incubated for 4 hours at 37° C.”
# [4] = target: chymotrypsin (Bos taurus, UniProt P00766); details: Waxman et al.; cited from earlier work
# [5] = target: blood coagulation factor Xa (Homo sapiens, UniProt P00742); details: Waxman et al.; cited from earlier work
# [6] = target: thrombin (Homo sapiens, UniProt P00734); details: Waxman et al.; cited from earlier work
# [7] = tested on: kallikrein; details: Waxman et al.; cited from earlier work
# [8] = target: T1, Factor VIIa (Homo sapiens, UniProt P08709); details: Waxman et al.; cited from earlier work
# T1 sequence (P08709 213-466 limits assumed): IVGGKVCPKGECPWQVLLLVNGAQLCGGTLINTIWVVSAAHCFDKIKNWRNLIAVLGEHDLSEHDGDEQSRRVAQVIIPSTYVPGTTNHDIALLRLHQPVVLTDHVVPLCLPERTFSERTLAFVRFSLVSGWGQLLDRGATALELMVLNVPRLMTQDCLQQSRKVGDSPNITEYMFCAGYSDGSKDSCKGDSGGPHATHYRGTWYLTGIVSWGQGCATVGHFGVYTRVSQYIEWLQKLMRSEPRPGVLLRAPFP
# T1 sequence (P08709 61-212 partner limits assumed): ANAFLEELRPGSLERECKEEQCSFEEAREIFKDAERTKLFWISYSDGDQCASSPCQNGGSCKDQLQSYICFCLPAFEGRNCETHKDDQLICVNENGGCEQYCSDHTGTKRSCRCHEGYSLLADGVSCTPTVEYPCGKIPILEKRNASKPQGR
# [9] = tested on: smooth muscle cells; experiment: Effect of factor Xa inhibitors on human protein S and bovine factor X induced smooth muscle cell mitogenesis; format: cell-based, rat; details: FIG. 3
# Protocol: Primary smooth muscle cell cultures were prepared from the thoracic and abdominal aorta of 2-3 month old Wistar rats essentially using the procedure of Reilly, C. F. (1990) J. Cell Physiol. 142,342 (1990). After removing as much fat and adherent adventitia as possible with scissors and forceps, the tissue was finely minced, enzymatically dissociated with successive 37° C. incubations in HBSS containing collagenase (Sigma, 0.5 mg/ml for 15 min.), then elastase (Sigma, 0.125 mg/ml for 30 min.) and again collagenase (60 min.). […] Cells were grown in Dulbecco's Minimal Essential Medium (DMEM) containing 10% fetal bovine serum (FBS) with antibiotics. […]
# (§3) The prepared rat smooth muscle cells were seeded in Falcon 24 multiwell plates (10^5 cells/well) and cultured at 37° C., in a 5% CO2 atmosphere in 1 ml DMEM containing 10% FBS. […] The cells were washed twice with cold phosphate buffered saline (PBS), treated twice with 5% trichloroacetic acid (TCA) for 5 min., dissolved with 0.25N NaOH (0.4 ml) incubated at 37° C. for 60 min., mixed with 5 ml Ecolume (ICN Biomedicals, Costa Mesa, Calif.), and their radioactivity determined in a scintillation counter. […] Smooth muscle cell mitogenic activity produced by exogenous agents is expressed as % relative mitogenic activity which is defined as: [formula] […]
# [10] = tested on: smooth muscle cells; experiment: Effect of antistasin and tick anticoagulant peptide on factor Xa induced mitogenesis of smooth muscle cells; format: cell-based, rat; details: FIG. 2
# Protocol: Primary smooth muscle cell cultures were prepared from the thoracic and abdominal aorta of 2-3 month old Wistar rats essentially using the procedure of Reilly, C. F. (1990) J. Cell Physiol. 142,342 (1990). After removing as much fat and adherent adventitia as possible with scissors and forceps, the tissue was finely minced, enzymatically dissociated with successive 37° C. incubations in HBSS containing collagenase (Sigma, 0.5 mg/ml for 15 min.), then elastase (Sigma, 0.125 mg/ml for 30 min.) and again collagenase (60 min.). […] Cells were grown in Dulbecco's Minimal Essential Medium (DMEM) containing 10% fetal bovine serum (FBS) with antibiotics. […] Using a monoclonal antibody to alpha actin (Sigma Chemical Company, St. Louis, Mo.), about 60-80% (preparation dependent) of these confluent cells stained positive for this smooth muscle cell marker. After 10 days in culture, the cells were dissociated with trypsinethylene diamine tetraacetate (EDTA), split 1:10 and subcultured in the above medium. At confluence the cells were transferred to DMEM containing 0.1 % FBS for a 24 hour period before using them for assay. […]
# as §3
# The effects of antistasin and tick anticoagulant peptide on factor Xa induced mitogenesis of smooth muscle cells were tested using the method shown in Example 4. […] At the end of the 24 hour incubation, ^3 H-thymidine incorporation into DNA was monitored and smooth muscle cell mitogenic activity was assessed as described in Example 4.
# [11] = target: T2, trypsin (Bos taurus, UniProt P00760); details: Waxman et al.; cited from earlier work
# T2 construct: gene PRSS1
# T2 sequence (P00760 24-246): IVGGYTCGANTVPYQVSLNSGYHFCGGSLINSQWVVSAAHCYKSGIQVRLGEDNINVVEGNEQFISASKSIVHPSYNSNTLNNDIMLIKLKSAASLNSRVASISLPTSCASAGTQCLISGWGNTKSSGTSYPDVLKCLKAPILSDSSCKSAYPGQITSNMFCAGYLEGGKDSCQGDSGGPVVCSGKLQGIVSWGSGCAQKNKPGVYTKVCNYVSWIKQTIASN
# Sequence of blood coagulation factor Xa (P00742 235-488 limits assumed): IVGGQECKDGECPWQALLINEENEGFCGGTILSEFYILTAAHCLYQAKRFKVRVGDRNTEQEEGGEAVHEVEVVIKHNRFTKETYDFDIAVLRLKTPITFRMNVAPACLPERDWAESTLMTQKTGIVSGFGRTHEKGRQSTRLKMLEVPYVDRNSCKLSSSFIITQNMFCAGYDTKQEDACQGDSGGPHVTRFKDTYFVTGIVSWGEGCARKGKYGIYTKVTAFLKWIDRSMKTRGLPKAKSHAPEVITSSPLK
# Sequence of blood coagulation factor Xa (P00742 41-179 partner limits assumed): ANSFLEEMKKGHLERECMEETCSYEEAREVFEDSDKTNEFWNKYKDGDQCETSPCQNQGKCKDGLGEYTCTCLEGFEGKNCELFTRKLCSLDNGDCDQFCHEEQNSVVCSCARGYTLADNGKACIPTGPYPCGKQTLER
compound,measurement,setting,value
OCCN(CCO)c1nc(N2CCCCC2)c2nc(N(CCO)CCO)nc(N3CCCCC3)c2n1 [dipyridamole],Smooth muscle proliferative responses,[1],prevented
PDGF [reference compound],Mitogenic units of EC conditioned media,[2]; EXP 1,1.00 mitogenic units
same,Mitogenic units of EC conditioned media,[2]; EXP 2,1.00 mitogenic units
same,Mitogenic units of EC conditioned media,[2]; EXP 3,1.00 mitogenic units
same,Mitogenic units of EC conditioned media,[2]; EXP 4,1.00 mitogenic units
same,Mitogenic units of EC conditioned media,[3]; EXP 1,1.00 mitogenic units
same,Mitogenic units of EC conditioned media,[3]; EXP 2,1.00 mitogenic units
same,Mitogenic units of EC conditioned media,[3]; EXP 3,1.00 mitogenic units
"tick anticoagulant peptide (YNRLCIKPRDWIDECDSNEGGERAYFRNGKGGCDSFWICPEDHTGADYYSSYRDCFNACI; UniProt P17726 1-60, looked up) [TAP, 60-amino acid peptide isolated from extracts of the soft tick Ornithodoros moubata]",Effect on chymotrypsin,[4],no effect
same,Inhibition of blood factor Xa,[5],highly specific inhibitor; also recorded: potent inhibitor
same,Effect on thrombin,[6],no effect
same,Effect on kallikrein,[7],no effect
same,Effect on Factor VIIa,[8],no effect
same,Inhibition of relative mitogenic activity of bovine factor X,[9]; 10 nM bovine factor X with 100 nM TAP,not significantly inhibited
same,Inhibition of relative mitogenic activity of protein S,[9]; protein S with 250 nM TAP,abolished
same,Relative mitogenic activity above control,[10]; 10 nM fXa and 3-25 nM TAP,about 25%
same,Relative mitogenic activity above control,[10]; 10 nM fXa and 50-62 nM TAP,about 9%
same,Relative mitogenic activity above control,[10]; 10 nM fXa with 100-250 nM TAP,near zero
same,Effect on trypsin,[11],no effect
